From ChEMBL document CHEMBL5465560, “Selectivity Literature for EUbOPEN Chemogenomic Library” (2024)
Blank lines part the entries; values can stand above or below the compound they belong to.

Tests used:
[1] = target: Serine/threonine-protein kinase SIK1 (Homo sapiens) (UniProt P57059); assay: Selectivity interaction (KinomeScan (DiscoverX)) EUB0000607a SIK1; conditions: at 10 µM
[2] = target: MAP kinase-activated protein kinase 2 (Homo sapiens, UniProt P49137); assay: Selectivity interaction (KinomeScan (DiscoverX)) EUB0001619a MAPKAPK2; conditions: at 1 µM
[3] = target: T1, Serine/threonine-protein kinase 36 (Homo sapiens) (UniProt Q9NRP7); conditions: at 10 µM
T1 sequence (whole entry): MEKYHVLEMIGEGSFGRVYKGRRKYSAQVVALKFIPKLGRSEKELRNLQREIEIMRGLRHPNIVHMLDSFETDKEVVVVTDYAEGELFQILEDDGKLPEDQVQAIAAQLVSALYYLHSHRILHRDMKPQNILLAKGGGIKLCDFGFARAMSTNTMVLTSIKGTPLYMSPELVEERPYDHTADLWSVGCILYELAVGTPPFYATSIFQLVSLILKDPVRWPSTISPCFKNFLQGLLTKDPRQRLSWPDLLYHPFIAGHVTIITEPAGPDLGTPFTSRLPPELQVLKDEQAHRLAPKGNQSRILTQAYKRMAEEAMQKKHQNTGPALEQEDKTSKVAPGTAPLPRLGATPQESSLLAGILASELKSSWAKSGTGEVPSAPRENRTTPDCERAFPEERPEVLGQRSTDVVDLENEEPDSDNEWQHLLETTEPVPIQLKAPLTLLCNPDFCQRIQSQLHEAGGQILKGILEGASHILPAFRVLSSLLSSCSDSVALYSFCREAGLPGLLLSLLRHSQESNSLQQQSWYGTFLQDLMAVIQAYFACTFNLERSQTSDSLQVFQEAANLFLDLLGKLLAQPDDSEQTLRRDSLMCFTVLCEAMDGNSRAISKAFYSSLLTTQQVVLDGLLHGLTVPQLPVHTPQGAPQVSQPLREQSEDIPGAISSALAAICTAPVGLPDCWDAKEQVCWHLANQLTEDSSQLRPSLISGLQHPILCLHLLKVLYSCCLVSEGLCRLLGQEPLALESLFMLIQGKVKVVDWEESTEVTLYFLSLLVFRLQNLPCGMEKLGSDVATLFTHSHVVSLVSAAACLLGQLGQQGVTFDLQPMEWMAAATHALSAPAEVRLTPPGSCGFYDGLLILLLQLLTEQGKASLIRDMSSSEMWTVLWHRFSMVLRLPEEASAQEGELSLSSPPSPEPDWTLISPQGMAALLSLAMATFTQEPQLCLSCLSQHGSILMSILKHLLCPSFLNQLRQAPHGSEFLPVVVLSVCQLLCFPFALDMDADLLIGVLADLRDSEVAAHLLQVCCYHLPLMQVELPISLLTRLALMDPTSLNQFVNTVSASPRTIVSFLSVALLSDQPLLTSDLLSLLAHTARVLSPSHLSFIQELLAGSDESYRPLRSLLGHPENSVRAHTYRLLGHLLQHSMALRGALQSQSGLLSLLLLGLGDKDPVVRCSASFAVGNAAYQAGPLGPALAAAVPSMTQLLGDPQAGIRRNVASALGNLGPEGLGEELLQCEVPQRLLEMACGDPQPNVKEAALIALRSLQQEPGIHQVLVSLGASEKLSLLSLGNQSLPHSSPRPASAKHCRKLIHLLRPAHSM

[4] = target: Dual specificity protein kinase CLK2 (Homo sapiens, UniProt P49760); assay: Selectivity interaction (ActivX KiNativ screen (kinase selectivity in THP-1 cell lysates)) EUB0000639a CLK2; format: subcellular; conditions: lysate
[5] = target: Tyrosine-protein kinase JAK2 (Homo sapiens, UniProt O60674); assay: Selectivity interaction (KinomeScan (DiscoverX)) EUB0000666a JAK2; conditions: at 10 µM
[6] = target: T2, SNF-related serine/threonine-protein kinase (Homo sapiens) (UniProt Q9NRH2); assay: Selectivity interaction (KinomeScan (DiscoverX)) EUB0000695a SNRK; conditions: at 100 nM
T2 sequence (whole entry): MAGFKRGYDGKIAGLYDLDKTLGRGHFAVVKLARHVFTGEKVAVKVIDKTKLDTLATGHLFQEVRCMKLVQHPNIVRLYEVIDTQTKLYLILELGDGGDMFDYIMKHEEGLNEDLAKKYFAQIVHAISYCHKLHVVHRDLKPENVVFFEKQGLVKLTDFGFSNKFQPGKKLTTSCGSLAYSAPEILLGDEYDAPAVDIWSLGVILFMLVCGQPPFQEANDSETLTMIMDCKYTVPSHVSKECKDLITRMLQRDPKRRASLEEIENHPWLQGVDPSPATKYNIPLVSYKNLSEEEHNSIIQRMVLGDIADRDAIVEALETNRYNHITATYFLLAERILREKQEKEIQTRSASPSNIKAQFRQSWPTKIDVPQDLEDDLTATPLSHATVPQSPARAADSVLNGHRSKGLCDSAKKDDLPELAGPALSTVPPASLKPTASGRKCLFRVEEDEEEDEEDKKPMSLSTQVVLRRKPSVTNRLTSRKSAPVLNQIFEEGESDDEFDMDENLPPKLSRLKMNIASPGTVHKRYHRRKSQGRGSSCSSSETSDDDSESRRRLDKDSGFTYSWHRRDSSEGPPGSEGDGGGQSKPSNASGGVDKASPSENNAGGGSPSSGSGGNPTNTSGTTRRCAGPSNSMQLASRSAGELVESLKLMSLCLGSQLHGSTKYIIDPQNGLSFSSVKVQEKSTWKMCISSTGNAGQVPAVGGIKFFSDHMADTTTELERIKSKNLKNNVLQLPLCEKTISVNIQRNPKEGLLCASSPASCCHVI

Dual specificity protein kinase CLK2, sequence (P49760 whole entry, looked up): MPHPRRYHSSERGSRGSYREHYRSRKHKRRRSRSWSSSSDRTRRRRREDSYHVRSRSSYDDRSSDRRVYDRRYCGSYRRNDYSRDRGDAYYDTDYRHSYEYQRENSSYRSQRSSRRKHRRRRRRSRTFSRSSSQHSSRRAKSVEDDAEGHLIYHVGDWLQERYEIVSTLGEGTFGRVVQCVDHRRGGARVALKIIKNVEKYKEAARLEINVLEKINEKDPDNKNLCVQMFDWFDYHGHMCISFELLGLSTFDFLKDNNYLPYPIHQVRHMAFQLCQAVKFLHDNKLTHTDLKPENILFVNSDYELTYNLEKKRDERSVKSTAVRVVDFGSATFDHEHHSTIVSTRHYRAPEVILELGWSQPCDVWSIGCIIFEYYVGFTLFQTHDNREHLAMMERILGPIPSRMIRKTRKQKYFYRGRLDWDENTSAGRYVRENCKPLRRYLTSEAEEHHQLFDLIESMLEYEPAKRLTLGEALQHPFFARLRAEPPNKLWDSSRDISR
MAP kinase-activated protein kinase 2, sequence (P49137 whole entry, looked up): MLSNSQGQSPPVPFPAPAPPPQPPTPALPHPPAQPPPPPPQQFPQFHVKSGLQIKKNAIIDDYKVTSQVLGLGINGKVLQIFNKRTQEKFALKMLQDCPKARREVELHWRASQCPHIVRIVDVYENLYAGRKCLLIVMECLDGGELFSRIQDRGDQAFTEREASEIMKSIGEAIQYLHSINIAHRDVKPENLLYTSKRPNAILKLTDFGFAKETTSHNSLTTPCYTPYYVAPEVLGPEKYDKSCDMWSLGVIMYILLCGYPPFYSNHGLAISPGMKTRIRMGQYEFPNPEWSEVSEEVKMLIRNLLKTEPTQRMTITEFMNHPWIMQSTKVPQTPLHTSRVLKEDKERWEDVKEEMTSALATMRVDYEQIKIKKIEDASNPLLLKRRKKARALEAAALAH
Tyrosine-protein kinase JAK2, sequence (O60674 whole entry): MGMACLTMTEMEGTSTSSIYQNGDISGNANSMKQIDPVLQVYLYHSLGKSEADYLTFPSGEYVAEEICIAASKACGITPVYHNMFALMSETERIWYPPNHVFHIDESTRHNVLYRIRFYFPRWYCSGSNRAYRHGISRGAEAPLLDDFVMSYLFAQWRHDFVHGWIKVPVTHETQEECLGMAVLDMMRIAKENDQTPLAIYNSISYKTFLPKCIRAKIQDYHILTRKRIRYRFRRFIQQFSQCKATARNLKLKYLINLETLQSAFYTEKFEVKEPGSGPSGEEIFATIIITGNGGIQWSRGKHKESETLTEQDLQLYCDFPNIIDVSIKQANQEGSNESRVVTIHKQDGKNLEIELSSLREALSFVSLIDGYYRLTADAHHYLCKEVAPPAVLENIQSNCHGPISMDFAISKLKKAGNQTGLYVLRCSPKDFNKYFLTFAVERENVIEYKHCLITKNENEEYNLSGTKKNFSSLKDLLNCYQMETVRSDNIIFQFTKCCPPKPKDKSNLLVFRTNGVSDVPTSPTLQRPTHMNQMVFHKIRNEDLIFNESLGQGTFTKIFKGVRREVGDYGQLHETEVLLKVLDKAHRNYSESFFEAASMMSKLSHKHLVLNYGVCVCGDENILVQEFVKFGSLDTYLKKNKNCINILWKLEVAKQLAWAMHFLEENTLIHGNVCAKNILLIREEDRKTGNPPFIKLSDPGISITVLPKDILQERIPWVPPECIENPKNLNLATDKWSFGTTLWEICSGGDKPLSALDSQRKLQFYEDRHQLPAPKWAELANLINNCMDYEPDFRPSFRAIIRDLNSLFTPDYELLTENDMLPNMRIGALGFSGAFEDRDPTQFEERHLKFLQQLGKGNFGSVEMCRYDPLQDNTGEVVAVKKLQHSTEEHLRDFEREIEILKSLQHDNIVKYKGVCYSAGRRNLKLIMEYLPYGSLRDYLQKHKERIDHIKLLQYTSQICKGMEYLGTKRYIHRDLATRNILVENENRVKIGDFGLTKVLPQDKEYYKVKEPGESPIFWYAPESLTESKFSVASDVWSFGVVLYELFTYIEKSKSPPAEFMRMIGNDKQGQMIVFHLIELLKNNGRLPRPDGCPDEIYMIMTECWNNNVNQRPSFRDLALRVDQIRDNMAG
Serine/threonine-protein kinase SIK1 (Homo sapiens), sequence (P57059 whole entry): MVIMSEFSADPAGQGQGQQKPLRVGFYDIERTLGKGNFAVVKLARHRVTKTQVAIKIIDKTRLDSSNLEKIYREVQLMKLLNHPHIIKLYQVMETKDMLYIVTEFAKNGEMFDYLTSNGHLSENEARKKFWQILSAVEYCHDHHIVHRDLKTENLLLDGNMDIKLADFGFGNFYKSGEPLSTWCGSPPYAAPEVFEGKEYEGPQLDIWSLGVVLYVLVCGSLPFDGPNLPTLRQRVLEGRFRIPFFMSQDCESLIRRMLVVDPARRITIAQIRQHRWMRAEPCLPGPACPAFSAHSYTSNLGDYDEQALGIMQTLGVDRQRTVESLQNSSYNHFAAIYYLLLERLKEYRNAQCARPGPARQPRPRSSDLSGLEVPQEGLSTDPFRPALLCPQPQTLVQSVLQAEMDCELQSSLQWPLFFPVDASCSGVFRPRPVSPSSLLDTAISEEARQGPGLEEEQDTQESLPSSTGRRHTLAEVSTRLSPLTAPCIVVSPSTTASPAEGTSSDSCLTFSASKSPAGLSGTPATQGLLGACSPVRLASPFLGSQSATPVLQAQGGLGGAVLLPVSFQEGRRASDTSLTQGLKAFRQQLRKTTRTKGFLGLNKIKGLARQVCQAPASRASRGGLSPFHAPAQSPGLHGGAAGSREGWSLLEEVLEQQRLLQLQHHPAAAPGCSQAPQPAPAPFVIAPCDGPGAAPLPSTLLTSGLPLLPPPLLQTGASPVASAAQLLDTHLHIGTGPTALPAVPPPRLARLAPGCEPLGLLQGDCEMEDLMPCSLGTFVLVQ

SMILES: CNC(=O)Nc1ccc(-c2nc(N3CC4CCC(C3)O4)c3cnn(C4CCC5(CC4)OCCO5)c3n2)cc1
% of control [1]: 86%

SMILES: N#Cc1cccc(-c2c[nH]c3ncnc(N4CCOCC4)c23)c1
% of control [2]: 100%

SMILES: Cc1cc([C@@H](C)Nc2ccccc2C(=O)O)c2nc(N3CCOCC3)cc(=O)n2c1 [AZD-6482]
% of control [3]: 100%

% of inhibition ([4]; at 0.01 µM): 26.8%
% of inhibition ([4]; at 0.04 µM): 32.4%
% of inhibition ([4]; at 0.2 µM): 38.8%
% of inhibition ([4]; at 1 µM): 14.3%
% of inhibition ([4]; at 5 µM): 19.9%
SMILES: CC[C@@H]1[C@H](F)C(=O)N[C@@H]1COc1nccc2cc(C(N)=O)c(OC)cc12 [ZIMLOVISERTIB]

SMILES: O=C(NOC[C@H](O)CO)c1ccc(F)c(F)c1Nc1ccc(I)cc1F
% of control [5]: 100%

SMILES: Cc1cc(F)c(C(=O)Nc2cccc(-c3nncn3C(C)C)n2)cc1-n1cnc(C2CC2)c1
% of control [6]: 97%
